Laboratory results from US11306084B2, “Integrin antagonists” (Saint Louis University, priority 2016, dated 2022).
Where a name gives a salt, the structure may show the parent alone.

Tests used:
Assay type in all cases: binding
[1] = molecular target: T1, Recombinant human integrin ανβ6 (Homo sapiens, UniProt P06756+P18564); assay: Solid Phase Receptor Assay (SPRA) for ανβ6 function; settings: plate-bound human LAP; read-out: αvβ6 SPRA IC50
T1 construct: purchased R&D Systems 3817-AV
Procedure: E. Solid Phase Receptor Assay (SPRA) for ανβ6 Function
Wells were washed 3 times with 150 μL TBS+, and then 150 μL of blocking buffer (TBS+ with 1% bovine serum albumin, Sigma A7906) was added. The plate was incubated for 1 hr at 37° C., and then washed 3× with TBS+ buffer. […] Compounds were diluted to 20 μM and then 1 μL was added to each well of the plate according to a standard template with each sample repeated in triplicate. After incubation for two hours at room temperature, the plate was washed 3× with 150 μL of TBS+ buffer. To each well, 50 μL of biotinylated anti-αν antibody (R&D Systems, BAF1219) at 0.5 μg/mL in TBS+/0.1% BSA were added and the plate was covered and incubated for 1 hr at room temperature. After washing the plate 3× with 150 μL of TBS+ buffer, 50 μL of streptavidin-conjugated horseradish peroxidase (R&D Systems, DY998) diluted in TBS+ blocking buffer were added to the wells and the plate incubated for 20 min at room temperature. The plate was washed 3× with TBS+ buffer followed by 50 μL of TMB substrate (Sigma T4444) added to each well in the dark and the plate incubated for 10 min at room temperature. 25 μL of 1.0 M phosphoric acid was added as a stop solution and the plates were read at 450 nm using a Spectramax plate reader.

[2] = molecular target: T2, Recombinant human integrin ανβ5 (Homo sapiens, UniProt P06756+P18084); assay: Solid Phase Receptor Assay (SPRA) for ανβ5 function; settings: plate-bound human vitronectin; read-out: αvβ5 SPRA IC50
T2 construct: purchased R&D Systems 2528-AV
T2 sequence (P06756 31-992 limits assumed): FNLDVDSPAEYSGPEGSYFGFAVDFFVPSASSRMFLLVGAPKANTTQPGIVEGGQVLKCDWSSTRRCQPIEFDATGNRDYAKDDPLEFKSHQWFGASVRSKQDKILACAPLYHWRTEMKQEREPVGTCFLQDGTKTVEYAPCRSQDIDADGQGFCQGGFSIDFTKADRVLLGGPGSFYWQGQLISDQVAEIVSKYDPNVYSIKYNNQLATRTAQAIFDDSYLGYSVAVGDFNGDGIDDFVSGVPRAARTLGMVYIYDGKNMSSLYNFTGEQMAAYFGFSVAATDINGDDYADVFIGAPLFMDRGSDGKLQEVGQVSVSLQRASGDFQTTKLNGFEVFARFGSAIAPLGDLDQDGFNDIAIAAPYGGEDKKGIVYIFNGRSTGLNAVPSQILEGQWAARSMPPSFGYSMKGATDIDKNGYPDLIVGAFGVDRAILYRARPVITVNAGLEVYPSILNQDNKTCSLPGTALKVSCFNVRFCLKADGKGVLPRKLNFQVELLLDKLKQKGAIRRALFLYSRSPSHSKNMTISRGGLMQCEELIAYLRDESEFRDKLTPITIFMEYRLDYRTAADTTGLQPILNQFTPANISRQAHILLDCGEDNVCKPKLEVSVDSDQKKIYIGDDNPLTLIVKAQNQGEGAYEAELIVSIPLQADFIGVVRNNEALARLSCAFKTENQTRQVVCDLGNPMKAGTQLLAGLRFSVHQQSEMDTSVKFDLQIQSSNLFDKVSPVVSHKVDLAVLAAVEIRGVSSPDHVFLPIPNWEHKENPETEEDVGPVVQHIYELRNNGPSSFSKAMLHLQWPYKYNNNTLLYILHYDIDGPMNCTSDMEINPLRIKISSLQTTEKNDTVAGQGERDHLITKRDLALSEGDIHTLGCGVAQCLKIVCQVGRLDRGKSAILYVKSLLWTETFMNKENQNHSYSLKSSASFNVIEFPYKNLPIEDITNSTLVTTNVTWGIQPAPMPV
T2 sequence (P18084 24-719 limits assumed): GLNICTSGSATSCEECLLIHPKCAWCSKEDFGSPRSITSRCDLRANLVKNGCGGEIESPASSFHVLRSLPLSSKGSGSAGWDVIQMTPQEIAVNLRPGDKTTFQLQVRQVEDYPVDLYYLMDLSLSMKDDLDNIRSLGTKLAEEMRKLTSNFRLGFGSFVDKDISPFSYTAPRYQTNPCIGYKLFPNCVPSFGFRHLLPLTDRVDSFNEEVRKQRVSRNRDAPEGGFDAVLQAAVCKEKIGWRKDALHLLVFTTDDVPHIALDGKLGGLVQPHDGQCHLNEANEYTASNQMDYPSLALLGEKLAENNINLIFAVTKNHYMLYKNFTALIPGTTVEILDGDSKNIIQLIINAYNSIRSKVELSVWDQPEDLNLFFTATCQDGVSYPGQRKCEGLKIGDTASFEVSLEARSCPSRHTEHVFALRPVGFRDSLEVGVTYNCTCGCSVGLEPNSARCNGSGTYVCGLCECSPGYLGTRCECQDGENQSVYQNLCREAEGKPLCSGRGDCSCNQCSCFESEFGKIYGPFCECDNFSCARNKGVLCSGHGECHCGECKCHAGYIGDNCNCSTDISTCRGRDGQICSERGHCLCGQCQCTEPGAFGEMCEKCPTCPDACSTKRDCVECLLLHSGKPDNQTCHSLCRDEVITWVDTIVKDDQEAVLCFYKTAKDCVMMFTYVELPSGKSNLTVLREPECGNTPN
Procedure: D. Solid Phase Receptor Assay (SPRA) for ανβ5 Function
Wells were washed 3 times with 150 μL TBS+ and then 150 μL of blocking buffer (TBS+ with 1% bovine serum albumin, Sigma A7906) was added. The plate was incubated for 1 hr at 37° C. and then washed 3× with TBS+ buffer. […] Compounds were diluted to 20 μM and then 1 μL was added to each well of the plate according to a standard template with each sample repeated in triplicate. After incubation for two hours at room temperature, the plate was washed 3× with 150 μL of TBS+ buffer. To each well, 50 μl of biotinylated anti-αν antibody (R&D Systems, BAF1219) at 0.5 μg/mL in TBS+/0.1% BSA at 0.5 μg/mL were added and the plate covered and incubated for 1 hr at room temperature. After washing the plate 3 with 150 μL of TBS+ buffer, 50 μL of streptavidin-conjugated horseradish peroxidase (R&D Systems, DY998) diluted in TBS+ blocking buffer were added to the wells and the plate incubated for 20 min at room temperature. The plate was washed 3× with TBS+ buffer followed by 50 μL of TMB substrate (Sigma T4444) added to each well in the dark and the plate incubated for 5 min at room temperature. 25 μL of 1.0 M phosphoric acid was added as a stop solution and the plates were read at 450 nm using a Spectramax plate reader.

[3] = molecular target: T3, Recombinant human integrin ανβ3 (Homo sapiens, UniProt P05106+P06756); assay: Solid Phase Receptor Assay (SPRA) for ανβ3 function; settings: plate-bound human vitronectin; read-out: αvβ3 SPRA IC50
T3 construct: purchased R&D Systems 3050-AV
T3 sequence (P06756 31-992 limits assumed): as the sequence (P06756 31-992 limits assumed) above
T3 sequence (P05106 27-718 limits assumed): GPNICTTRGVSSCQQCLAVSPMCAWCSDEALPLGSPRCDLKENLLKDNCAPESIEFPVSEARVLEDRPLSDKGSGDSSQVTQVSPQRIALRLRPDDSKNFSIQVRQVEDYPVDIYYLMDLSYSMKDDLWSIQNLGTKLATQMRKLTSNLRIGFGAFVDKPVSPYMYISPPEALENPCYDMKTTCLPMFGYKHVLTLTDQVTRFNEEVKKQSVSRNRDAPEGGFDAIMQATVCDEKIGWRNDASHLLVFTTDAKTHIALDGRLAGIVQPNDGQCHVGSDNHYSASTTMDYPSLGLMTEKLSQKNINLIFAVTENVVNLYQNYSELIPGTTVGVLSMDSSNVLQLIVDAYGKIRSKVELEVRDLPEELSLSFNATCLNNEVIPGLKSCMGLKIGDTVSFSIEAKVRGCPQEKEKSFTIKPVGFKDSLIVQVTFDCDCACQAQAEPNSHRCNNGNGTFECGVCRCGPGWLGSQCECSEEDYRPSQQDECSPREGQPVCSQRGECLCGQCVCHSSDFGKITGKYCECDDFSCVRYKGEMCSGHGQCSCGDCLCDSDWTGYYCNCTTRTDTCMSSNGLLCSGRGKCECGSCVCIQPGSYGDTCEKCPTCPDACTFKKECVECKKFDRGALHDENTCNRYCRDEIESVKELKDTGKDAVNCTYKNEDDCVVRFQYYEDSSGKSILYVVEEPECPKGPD
Procedure: C. Solid Phase Receptor Assay (SPRA) for ανβ3 Function
(§1) Wells were washed 3 times with 150 μL TBS+ and then 150 μL of blocking buffer (TBS+ with 1% bovine serum albumin, Sigma A7906) was added. The plate was incubated for 1 hr at 37° C. and then washed 3× with TBS+ buffer. […] Compounds were diluted to 20 μM and then 1 μL was added to each well of the plate according to a standard template with each sample repeated in triplicate. After incubation for two hours at room temperature, the plate was washed 3× with 150 μL of TBS+ buffer. To each well, 50 μL of biotinylated anti-αν antibody (R&D Systems, BAF1219) at 0.5 μg/mL in TBS+/0.1% BSA were added and the plate covered and incubated for 1 hr at room temperature. After washing the plate 3× with 150 μL of TBS+ buffer, 50 μL of streptavidin-conjugated horseradish peroxidase (R&D Systems, DY998) diluted in TBS+ blocking buffer were added to the wells and the plate incubated for 20 min at room temperature. The plate was washed 3× with TBS+ buffer followed by 50 μL of TMB substrate (Sigma, T4444) added to each well in the dark and the plate was incubated for 25 min at room temperature. 25 μL of 1.0 M phosphoric acid was added as a stop solution and the plates were read at 450 nm using a Spectramax plate reader.

[4] = molecular target: T4, Recombinant human integrin ανβ8 (Homo sapiens, UniProt P06756+P26012); assay: Solid Phase Receptor Assay (SPRA) for ανβ8 function; settings: plate-bound human LAP; read-out: αvβ8 SPRA IC50
T4 construct: purchased R&D Systems 4135-AV
T4 sequence (P06756 31-992 limits assumed): as the sequence (P06756 31-992 limits assumed) above
T4 sequence (P26012 43-684 limits assumed): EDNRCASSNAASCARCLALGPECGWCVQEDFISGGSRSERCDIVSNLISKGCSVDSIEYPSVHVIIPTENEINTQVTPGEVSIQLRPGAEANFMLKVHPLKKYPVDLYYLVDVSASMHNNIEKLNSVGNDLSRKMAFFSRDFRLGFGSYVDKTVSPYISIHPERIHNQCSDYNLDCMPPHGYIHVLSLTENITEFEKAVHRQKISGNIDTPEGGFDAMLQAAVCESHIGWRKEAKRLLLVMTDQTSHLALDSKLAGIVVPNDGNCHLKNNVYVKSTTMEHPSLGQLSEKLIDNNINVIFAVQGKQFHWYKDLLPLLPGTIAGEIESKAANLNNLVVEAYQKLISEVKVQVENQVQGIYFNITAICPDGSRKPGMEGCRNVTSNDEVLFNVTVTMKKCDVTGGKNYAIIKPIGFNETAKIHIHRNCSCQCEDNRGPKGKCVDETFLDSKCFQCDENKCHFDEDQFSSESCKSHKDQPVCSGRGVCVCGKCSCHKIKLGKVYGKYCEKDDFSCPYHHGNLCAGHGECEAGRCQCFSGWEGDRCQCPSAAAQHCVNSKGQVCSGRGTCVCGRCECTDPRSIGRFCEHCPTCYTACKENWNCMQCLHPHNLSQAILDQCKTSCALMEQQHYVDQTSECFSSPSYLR
Procedure: F. Solid Phase Receptor Assay (SPRA) for ανβ8 Function
Wells were washed 3 times with 150 μL TBS+ and then 150 μL of blocking buffer (TBS+ with 1% bovine serum albumin, Sigma A7906) was added. The plate was incubated for 1 hr at 37° C. and then washed 3× with TBS+. […] Compounds were diluted to 20 μM and 1 μL was added to each well of the plate according to a standard template with each sample repeated in triplicate. After incubation for two hours at room temperature, the plate was washed 3× with 150 μL of TBS+. To each well, 50 μL of biotinylated anti-αν antibody (R&D Systems, BAF1219) at 1 μg/mL in TBS+/0.1% BSA were added and the plate was covered and incubated for 1 hr at room temperature. After washing the plate 3× with 150 μL. of TBS+ buffer, 50 μL of streptavidin-conjugated horseradish peroxidase (R&D Systems, DY998) diluted in TBS+ blocking buffer were added to the wells and the plate incubated for 20 min at room temperature. The plate was washed 3× with TBS+ followed by 50 μL of TMB substrate (Sigma T4444) added to each well in the dark and the plate incubated for 10 min at room temperature. 25 μL of 1.0 M phosphoric acid was added as a stop solution and the plates were read at 450 nm using a Spectramax plate reader.

[5] = molecular target: T5, Recombinant human integrin ανβ1 (Homo sapiens, UniProt P05556+P06756); assay: Solid Phase Receptor Assay (SPRA) for ανβ1 function; settings: plate-bound human fibronectin; read-out: αvβ1 SPRA IC50
T5 construct: purchased R&D Systems 6579-AV
T5 sequence (P06756 31-992 limits assumed): as the sequence (P06756 31-992 limits assumed) above
T5 sequence (P05556 21-728 limits assumed): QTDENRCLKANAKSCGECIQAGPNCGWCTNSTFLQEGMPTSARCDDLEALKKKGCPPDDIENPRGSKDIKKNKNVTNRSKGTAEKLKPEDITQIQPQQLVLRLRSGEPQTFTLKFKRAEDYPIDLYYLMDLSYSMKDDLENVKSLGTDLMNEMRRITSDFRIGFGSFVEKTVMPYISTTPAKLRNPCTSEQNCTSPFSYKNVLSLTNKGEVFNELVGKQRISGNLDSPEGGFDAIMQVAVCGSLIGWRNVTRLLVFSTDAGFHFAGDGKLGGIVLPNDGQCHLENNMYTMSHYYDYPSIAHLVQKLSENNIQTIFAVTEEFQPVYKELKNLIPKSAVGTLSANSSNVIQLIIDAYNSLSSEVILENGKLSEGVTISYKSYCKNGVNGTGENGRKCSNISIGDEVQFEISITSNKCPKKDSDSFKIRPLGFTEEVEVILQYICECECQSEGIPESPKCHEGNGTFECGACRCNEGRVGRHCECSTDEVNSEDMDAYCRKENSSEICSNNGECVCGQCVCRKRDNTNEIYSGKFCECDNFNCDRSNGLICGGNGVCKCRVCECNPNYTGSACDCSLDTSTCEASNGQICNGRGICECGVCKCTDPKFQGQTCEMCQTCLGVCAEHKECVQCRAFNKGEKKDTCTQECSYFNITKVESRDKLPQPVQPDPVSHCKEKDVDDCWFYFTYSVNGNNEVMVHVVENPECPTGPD
Procedure: B. Solid Phase Receptor Assay (SPRA) for ανβ1 Function
as §1, with “μM and 1 μL” for “μM and then 1 μL”, “was washed 3 with 150” for “was washed 3× with 150”, “BAF1219) at 1 μg/mL in” for “BAF1219) at 0.5 μg/mL in”, “the plate incubated for” for “the plate was incubated for”

[6] = molecular target: T6, Recombinant human integrin α5β1 (Homo sapiens, UniProt P05556+P08648); assay: Solid Phase Receptor Assay (SPRA) for α5β1 function; settings: plate-bound human fibronectin
T6 construct: purchased R&D Systems 3230-A5
Procedure: A. Solid Phase Receptor Assay (SPRA) for α5β1 Function
Wells were washed 3 times with 150 μL TBS+ and then 150 μL of blocking buffer (TBS+ with 1% bovine serum albumin, Sigma A7906) was added. The plate was incubated for 1 hr at 37° C. and then washed 3× with TBS+ buffer. […] Compounds were diluted to 20 μM and then 1 μL was added to each well of the plate according to a standard template with each sample repeated in triplicate. After incubation for two hours at room temperature, the plate was washed 3× with 150 μL of TBS+ buffer. To each well, 50 μL of biotinylated anti-α5 antibody (R&D Systems, BAF1864) at 0.5 μg/mL in TBS+/0.1% BSA were added and the plate covered and incubated for 1 hr at room temperature. After washing the plate 3× with 150 μL of TBS+ buffer, 50 μL of streptavidin-conjugated horseradish peroxidase (R&D Systems, DY998) diluted in TBS+ blocking buffer were added to the wells and the plate incubated for 20 min at room temperature. The plate was washed 3× with TBS+ buffer followed by 50 μL of room temperature TMB substrate (Sigma, T4444) added to each well in the dark and the plate incubated for 25 min at room temperature. 25 μL of 1.0 M phosphoric acid was added as a stop solution and the plates were read at 450 nm using a Spectramax plate reader.

T1 sequence (P06756 31-992 limits assumed): as the sequence (P06756 31-992 limits assumed) above
T1 sequence (P18564 22-707 limits assumed): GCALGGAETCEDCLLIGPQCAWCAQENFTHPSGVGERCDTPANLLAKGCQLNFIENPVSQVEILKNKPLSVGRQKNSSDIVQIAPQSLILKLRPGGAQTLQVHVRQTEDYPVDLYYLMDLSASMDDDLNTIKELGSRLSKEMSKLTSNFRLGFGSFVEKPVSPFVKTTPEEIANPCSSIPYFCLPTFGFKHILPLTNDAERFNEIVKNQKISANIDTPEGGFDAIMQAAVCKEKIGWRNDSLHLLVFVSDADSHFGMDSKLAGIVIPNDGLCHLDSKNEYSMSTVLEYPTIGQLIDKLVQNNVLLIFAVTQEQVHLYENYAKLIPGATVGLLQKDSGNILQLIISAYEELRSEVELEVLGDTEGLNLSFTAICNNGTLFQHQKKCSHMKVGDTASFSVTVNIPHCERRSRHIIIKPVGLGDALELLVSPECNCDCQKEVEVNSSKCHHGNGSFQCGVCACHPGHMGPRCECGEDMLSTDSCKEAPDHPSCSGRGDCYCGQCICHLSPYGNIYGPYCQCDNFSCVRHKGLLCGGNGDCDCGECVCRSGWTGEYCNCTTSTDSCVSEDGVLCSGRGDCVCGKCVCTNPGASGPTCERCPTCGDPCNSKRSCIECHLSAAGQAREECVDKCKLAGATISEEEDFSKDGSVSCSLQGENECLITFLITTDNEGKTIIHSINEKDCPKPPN

Compound | IC50 [1] [nM] | IC50 [2] [nM] | IC50 [3] [nM] | IC50 [4] [nM] | IC50 [5] [nM] | IC50 [6] [nM]
Cn1nc(CC(CC(=O)O)c2cc(C#N)cc(C(F)(F)F)c2)cc1OCCc1ccc2c(n1)NCCC2 (stereo not drawn) [Example 12, 3-(3-cyano-5-(trifluoromethyl)phenyl)-4-(1-methyl-5-(2-(5,6,7,8-tetrahydro-1,8-naphthyridin-2-yl)ethoxy)-1H-pyrazol-3-yl)butanoic Acid] | 27 | 0.1 | 4.3 | 14 | 4.5 | –
CC(C)Oc1ccc(C(C)(C)C)cc1C(CC(=O)O)Cc1cc(OCCc2ccc3c(n2)NCCC3)n(C)n1 (stereo not drawn) [Example 35, 3-(5-tert-butyl-2-isopropoxy-phenyl)-4-[1-methyl-5-[2-(5,6,7,8-tetrahydro-1,8-naphthyridin-2-yl)ethoxy]pyrazol-3-yl]butanoic Acid Trifluoroacetate] | 1100 | – | – | 120 | 7.6 | 75
